Earlier results on two compounds are cited in patent publication US20230346830A1 (priority 2020, published 2023).

The subject of series [1] is severe acute respiratory syndrome SARS. The following applies: in vivo.
The subject of series [2] is broad range of microorganisms. The following applies: no less than 160 ppm, five hours of continuous exposure.
For series [3] the following is noted: 160 ppm for 30 min every 3.5 hours, intermittent.

Like-named read-outs stand apart in the source and are kept apart here.

In the case of `CC(=O)N[C@H](C(=O)O)C(C)(C)SN=O` (racemic) [SNAP, S-nitroso-N-acetylpenicillamine], the “inhibition of the virus replication cycle compared with cytokine treatment” value in the series on SARS CoV (50 μM SNAP) is on record as “same level of inhibition”. Besides, in the series with SARS CoV (100 μM SNAP), the “reduction in the yield of progeny virus” value is 2 log. In addition, the “viral RNA production” value in the series with SARS CoV (400 μM SNAP) is “significantly inhibited”. Moreover, the “inhibitory effect on yield of progeny virus” value in the series on SARS CoV (400 μM SNAP, compared with 100 μM) was “even more pronounced”. In addition, in the series on SARS CoV (concentration-dependent), the “replication cycle of SARS CoV” value is “significantly inhibited”.

On to `[N]=O` [NO, Nitric oxide], for which the “replication cycle of SARS CoV” value in the series with SARS CoV is given as “specifically inhibits”. The “survival of infected mice” value in the series with influenza WSN/33 (administered prophylactically or post-influenza infection, 80 ppm continuous or 160 ppm intermittent) is “failed to improve survival”. The “lung viral load between experimental groups” value in the series with influenza WSN/33 (influenza-infected mice) was “No difference”. The “effect on the virus” value in the series with influenza WSN/33 (influenza-infected mice, continuously at 80 ppm or intermittently at 160 ppm for 30 minutes followed by 3½ hours of breathing air) is reported as “no effect”. In addition, in series [1], the arterial oxygen saturation entry is given as “improved”; the lung infiltrates result is “decreased the spread and intensity”. Further, the “antimicrobial response in vitro” value in series [2] was “non-specific antimicrobial response”. Besides, the methemoglobinemia entry in series [3] is given as “could prevent methemoglobinemia”.
